{"source": "patent US8927533B2", "about": "“Thio derivatives bearing lactams as potent HDAC inhibitors and their uses as medicaments” (SIGMA-TAU Industrie Farmaceutiche Riunite S.p.A., priority 2011, dated 2015)", "key": {"HCT116 colon cancer": {"test_system": "HCT116 colon cancer", "test": "Antitumour activity, HCT116 xenograft, oral (Example 49)", "type": "in vivo, mice", "settings": "60 mg/10 ml/kg p.o., PEG200/DMSO/Cremophor EL", "source_text": "(§1) The experiment of example 48 was repeated with another compound on mice animal model developing HCT116 colon cancer as described above or A2780 ovarian cancer, and administering the drugs solubilised in orally in PEG200/DMSO/Cremophor EL (Sigma): 85/10/5 (volume percentage)."}, "A2780 ovarian cancer": {"test_system": "A2780 ovarian cancer", "test": "Antitumour activity, A2780 xenograft, oral (Example 49)", "type": "in vivo, mice", "settings": "110 mg/10 ml/kg p.o., PEG200/DMSO/Cremophor EL", "source_text": "as §1"}}, "data": [{"smiles": "CC(=O)SCCCCC[C@H](NC(=O)[C@H]1CCC(=O)N1)C(=O)Nc1ccccc1", "note": "[Example 21, Thioacetic acid S—{(S)-6-[((R)-5-oxo-pyrrolidine-2-carbonyl)-amino]-6-phenylcarbamoyl-hexyl}ester]", "values": [{"measurement": "BWL %", "setting": "HCT116 colon cancer", "result": 1, "unit": "%"}, {"measurement": "TVI %", "setting": "HCT116 colon cancer", "result": 62, "unit": "%"}, {"measurement": "BWL %", "setting": "A2780 ovarian cancer", "result": 7, "unit": "%"}, {"measurement": "TVI %", "setting": "A2780 ovarian cancer", "result": 89, "unit": "%"}]}]}
